Tested on: HFD/L-NAME mice
Assay: HFD/L-NAME HFpEF mouse model, TYA-11018 versus Empagliflozin for 9 weeks
Assay type: in vivo
Conditions: TYA-11018 15 mg/kg, Empagliflozin 10 mg/kg
Description: After HFpEF phenotypes were established, mice received 15 mg/kg TYA-11018 or 10 mg/kg Empagliflozin, or vehicle orally once daily for 9 weeks. Health monitoring was performed weekly with body weights recorded. Glucose tolerance test was performed after 1st dose. Cardiac function was recorded by echocardiography after treatment for 9 weeks. End diastolic pressure (EDP) was measured by PV-Loop at terminal at 9 weeks after dosing.
Animals: Cohort of mice with established HFpEF phenotypes and age/sex matched wild type controls were used for dosing study. […] After acclimation for 1 week, one group of mice was fed with high fat diet containing 0.07% L-NAME (LabDiet 5G5V, St Louis, MO) for 15 weeks. The control group of mice were fed with normal chow (LabDiet 5053, St Louis, MO). […] Animals were housed in an animal research facility in accordance with the National Research Council of the National Academies guidelines for the care and use of laboratory animals.
A second group of mice was fed with standard chow for controls.
Transthoracic echocardiography was performed using a VisualSonics Vevo 2100 system equipped with MS400 transducer (Visual Sonics, Toronto, ON). LVEF and other indices of systolic function were obtained from short-axis M-mode scans at the midventricular level, as indicated by the presence of papillary muscles, in conscious, gently restrained mice. […]
Intraperitoneal glucose-tolerance tests were performed by injection of glucose (2 g/kg in saline) after 6 hour fasting (from 7 a.m. to 1 p.m.). Tail blood glucose levels (mg/dL) were measured by AimStrip Plus blood glucose strips used with the AimStrip Plus blood glucose monitoring system (Germaine Laboratories, San Antonio, TX) at 0 (baseline, before glucose dose), 15, 30, 45, 60 and 120 minutes after glucose administration.
The trachea was exposed by a midline incision from the base of the throat to just above the clavicle. […] The hemodynamic parameters were then recorded in close-chest mode. […]

## OC[C@H]1O[C@@H](c2ccc(Cl)c(Cc3ccc(O[C@H]4CCOC4)cc3)c2)[C@H](O)[C@@H](O)[C@@H]1O [Empagliflozin, empagliflozin]
  E/A ratio: decreased
  E/e′ ratio: decreased
  end diastolic pressure: reduced end diastolic pressure
